{"source": "patent US8192962B2", "about": "“Processes for detecting toxic substances” (Daikin Industries, Ltd., priority 2001, dated 2012)", "system": "Stress protein genes", "assay": "DNA chip mRNA expression in yeast, stress protein genes (Table 6)", "format": "cell-based, Saccharomyces cerevisiae S288C", "experimental": "Yeast (Saccharomyces cerevisiae S288C (α SUC2mal mel gap2 CUP1)) were incubated at 25° C. on YPD medium (yeast extract 1%, polypepton 2%, glucose 2%). One of toxic chemical substances was added to the cells at logarithmic growth phase, and the cells were further incubated for two hours. Cells were cultured without any chemical substance in the same condition, and were used as control. Concentrations of the chemical substances were defined to inhibit the growth of the yeast but not lead to death.\nAfter completion of the incubation, the culture was centrifuged to collect the cells. To the cells, sodium acetate buffer (50 mM sodium acetate, 10 mM EDTA, 1% SDS) was added, and the mixture was shaken at 65° C. for five minutes, followed by returning to room temperature, and obtaining the supernatant, of which the procedures were repeated two times. To the supernatant, ½ amount of a solution of phenol/chloroform was added, and the mixture was centrifuged to give a supernatant, which was added with an equal amount of chloroform, and the mixture was centrifuged to give a supernatant. To the supernatant, an equal amount of isopropanol containing 0.3 M sodium acetate was added, and the mixture was allowed to stand at room temperature for 30 minutes, after which the mixture was centrifuged to give a sediment of the whole RNAs. Seventy % ethanol was added to the sediment, and the mixture was again centrifuged to give a sediment, which was then dried and dissolved in water. mRNA was isolated from the whole RNAs as followings. In view of the fact that a poly A chain is attached to the 3′ terminus of mRNA, a polynucleotide having a poly T structure which was immobilized on the surface of latex beads was used to trap the mRNA, and then the mRNA was washed and eluted with spine column (Oligotex-dT30<Super>mRNA Purification Kit, Takara). Reverse transcription of the mRNA was conducted with a reverse transcriptase (Super Script II Reverse Transcriptase; catalogue No. 18064-014, GibcoBRL) using fluorescence-labeled nucleotides to give cDNAs that were introduced with Cy3-dUTP or Cy5-dUTP during the reverse transcription.\nThe labeled cDNAs were dissolved in TE buffer (10mM Tris-HCl/1 mM EDTA, pH8.0), and the solution was dropped on the DNA chip containing the whole genes of yeast (DNA Chip Research Inc. Japan) so that the cDNAs were hybridized on the DNA chip at 65° C. for over 12 hours. The fluoresces intensity of the DNA chip was read with a scanner, and the ratio relative to the fluorescence intensity resulting from the absence of chemical substance was estimated as the following, which is shown in Tables 1 to 9: […]", "data": [{"substance": "Na2As [(1)]", "values": [{"measurement": "The level of expressed mRNA in the presence of chemical substance/The level of expressed mRNA in the absence of chemical substance", "setting": "yeast gene YAL005C", "value": 0.6}, {"measurement": "The level of expressed mRNA in the presence of chemical substance/The level of expressed mRNA in the absence of chemical substance", "setting": "yeast gene YAL015C", "value": 1.2}, {"measurement": "The level of expressed mRNA in the presence of chemical substance/The level of expressed mRNA in the absence of chemical substance", "setting": "yeast gene YBL075C", "value": 1.3}, {"measurement": "The level of expressed mRNA in the presence of chemical substance/The level of expressed mRNA in the absence of chemical substance", "setting": "yeast gene YBL093C", "value": 1.0}, {"measurement": "The level of expressed mRNA in the presence of chemical substance/The level of expressed mRNA in the absence of chemical substance", "setting": "yeast gene YBR044C", "value": 0.8}, {"measurement": "The level of expressed mRNA in the presence of chemical substance/The level of expressed mRNA in the absence of chemical substance", "setting": "yeast gene YBR054W", "value": 1.9}, {"measurement": "The level of expressed mRNA in the presence of chemical substance/The level of expressed mRNA in the absence of chemical substance", "setting": "yeast gene YBR067C", "value": 1.6}, {"measurement": "The level of expressed mRNA in the presence of chemical substance/The level of expressed mRNA in the absence of chemical substance", "setting": "yeast gene YBR072W", "value": 18.5}, {"measurement": "The level of expressed mRNA in the presence of chemical substance/The level of expressed mRNA in the absence of chemical substance", "setting": "yeast gene YBR126C", "value": 0.8}, {"measurement": "The level of expressed mRNA in the presence of chemical substance/The level of expressed mRNA in the absence of chemical substance", "setting": "yeast gene YBR169C", "value": 1.0}, {"measurement": "The level of expressed mRNA in the presence of chemical substance/The level of expressed mRNA in the absence of chemical substance", "setting": "yeast gene YCL035C", "value": 2.0}, {"measurement": "The level of expressed mRNA in the presence of chemical substance/The level of expressed mRNA in the absence of chemical substance", "setting": "yeast gene YCR021C", "value": 5.2}, {"measurement": "The level of expressed mRNA in the presence of chemical substance/The level of expressed mRNA in the absence of chemical substance", "setting": "yeast gene YCR083W", "value": 1.1}, {"measurement": "The level of expressed mRNA in the presence of chemical substance/The level of expressed mRNA in the absence of chemical substance", "setting": "yeast gene YDL022W", "value": 0.9}, {"measurement": "The level of expressed mRNA in the presence of chemical substance/The level of expressed mRNA in the absence of chemical substance", "setting": "yeast gene YDL025C", "value": 1.7}, {"measurement": "The level of expressed mRNA in the presence of chemical substance/The level of expressed mRNA in the absence of chemical substance", "setting": "yeast gene YDR033W", "value": 1.1}, {"measurement": "The level of expressed mRNA in the presence of chemical substance/The level of expressed mRNA in the absence of chemical substance", "setting": "yeast gene YDR077W", "value": 1.2}, {"measurement": "The level of expressed mRNA in the presence of chemical substance/The level of expressed mRNA in the absence of chemical substance", "setting": "yeast gene YDR098C", "value": 0.8}, {"measurement": "The level of expressed mRNA in the presence of chemical substance/The level of expressed mRNA in the absence of chemical substance", "setting": "yeast gene YDR155C", "value": 1.1}, {"measurement": "The level of expressed mRNA in the presence of chemical substance/The level of expressed mRNA in the absence of chemical substance", "setting": "yeast gene YDR258C", "value": 1.6}, {"measurement": "The level of expressed mRNA in the presence of chemical substance/The level of expressed mRNA in the absence of chemical substance", "setting": "yeast gene YDR293C", "value": 0.9}, {"measurement": "The level of expressed mRNA in the presence of chemical substance/The level of expressed mRNA in the absence of chemical substance", "setting": "yeast gene YDR436W", "value": 0.9}, {"measurement": "The level of expressed mRNA in the presence of chemical substance/The level of expressed mRNA in the absence of chemical substance", "setting": "yeast gene YDR513W", "value": 2.2}, {"measurement": "The level of expressed mRNA in the presence of chemical substance/The level of expressed mRNA in the absence of chemical substance", "setting": "yeast gene YDR519W", "value": 1.3}, {"measurement": "The level of expressed mRNA in the presence of chemical substance/The level of expressed mRNA in the absence of chemical substance", "setting": "yeast gene YEL030W", "value": 0.7}, {"measurement": "The level of expressed mRNA in the presence of chemical substance/The level of expressed mRNA in the absence of chemical substance", "setting": "yeast gene YEL039C", "value": 1.1}, {"measurement": "The level of expressed mRNA in the presence of chemical substance/The level of expressed mRNA in the absence of chemical substance", "setting": "yeast gene YER042W", "value": 3.0}, {"measurement": "The level of expressed mRNA in the presence of chemical substance/The level of expressed mRNA in the absence of chemical substance", "setting": "yeast gene YER057C", "value": 1.2}, {"measurement": "The level of expressed mRNA in the presence of chemical substance/The level of expressed mRNA in the absence of chemical substance", "setting": "yeast gene YER103W", "value": 0.7}, {"measurement": "The level of expressed mRNA in the presence of chemical substance/The level of expressed mRNA in the absence of chemical substance", "setting": "yeast gene YER125W", "value": 0.6}, {"measurement": "The level of expressed mRNA in the presence of chemical substance/The level of expressed mRNA in the absence of chemical substance", "setting": "yeast gene YFL014W", "value": 3.4}, {"measurement": "The level of expressed mRNA in the presence of chemical substance/The level of expressed mRNA in the absence of chemical substance", "setting": "yeast gene YFL016C", "value": 0.8}, {"measurement": "The level of expressed mRNA in the presence of chemical substance/The level of expressed mRNA in the absence of chemical substance", "setting": "yeast gene YFL020C", "value": 1.0}, {"measurement": "The level of expressed mRNA in the presence of chemical substance/The level of expressed mRNA in the absence of chemical substance", "setting": "yeast gene YFR052W", "value": 1.1}, {"measurement": "The level of expressed mRNA in the presence of chemical substance/The level of expressed mRNA in the absence of chemical substance", "setting": "yeast gene YGL073W", "value": 1.0}, {"measurement": "The level of expressed mRNA in the presence of chemical substance/The level of expressed mRNA in the absence of chemical substance", "setting": "yeast gene YGL115W", "value": 0.9}, {"measurement": "The level of expressed mRNA in the presence of chemical substance/The level of expressed mRNA in the absence of chemical substance", "setting": "yeast gene YGL181W", "value": 0.9}, {"measurement": "The level of expressed mRNA in the presence of chemical substance/The level of expressed mRNA in the absence of chemical substance", "setting": "yeast gene YGR088W", "value": 1.3}, {"measurement": "The level of expressed mRNA in the presence of chemical substance/The level of expressed mRNA in the absence of chemical substance", "setting": "yeast gene YHL028W", "value": 0.7}, {"measurement": "The level of expressed mRNA in the presence of chemical substance/The level of expressed mRNA in the absence of chemical substance", "setting": "yeast gene YHL046C", "value": 1.1}, {"measurement": "The level of expressed mRNA in the presence of chemical substance/The level of expressed mRNA in the absence of chemical substance", "setting": "yeast gene YHR030C", "value": 2.1}, {"measurement": "The level of expressed mRNA in the presence of chemical substance/The level of expressed mRNA in the absence of chemical substance", "setting": "yeast gene YHR057C", "value": 1.1}, {"measurement": "The level of expressed mRNA in the presence of chemical substance/The level of expressed mRNA in the absence of chemical substance", "setting": "yeast gene YHR104W", "value": 1.0}, {"measurement": "The level of expressed mRNA in the presence of chemical substance/The level of expressed mRNA in the absence of chemical substance", "setting": "yeast gene YIL011W", "value": 0.7}]}]}
